Drawing on patent publication US20250213555A1, “SUBSTITUTED TETRAHYDROFURAN ANALOGS AS MODULATORS OF SODIUM CHANNELS” (VERTEX PHARMACEUTICALS INCORPORATED, priority 2021, published 2025), this text covers IC50 for 24 compounds.

The term IC50 denotes the concentration that inhibits the measured activity by half.

Structures are written as SMILES.

The target of one experiment is human Nav 1.8 (Homo sapiens, UniProt Q9Y5Y9). The experiment in a line: E-VIPR assay detecting and measuring Nav inhibition properties. It is filed as cell-based. The settings on record: HEK cells expressing a truncated form of human Nav 1.8; assay performed in the presence of human serum (compound numbers followed by "*"); read-out: measured IC50 value in the E-VIPR Assay. An outline of the steps: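 Nav inhibition was read by E-VIPR: cells were electrically stimulated while coumarin/oxonol FRET emissions were recorded. Cells were HEK expressing a truncated human Nav 1.8 and co-transduced with KIR2.1, and were assayed in 25% final human serum.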
Sequence of human Nav 1.8 (Q9Y5Y9 126-399 limits assumed): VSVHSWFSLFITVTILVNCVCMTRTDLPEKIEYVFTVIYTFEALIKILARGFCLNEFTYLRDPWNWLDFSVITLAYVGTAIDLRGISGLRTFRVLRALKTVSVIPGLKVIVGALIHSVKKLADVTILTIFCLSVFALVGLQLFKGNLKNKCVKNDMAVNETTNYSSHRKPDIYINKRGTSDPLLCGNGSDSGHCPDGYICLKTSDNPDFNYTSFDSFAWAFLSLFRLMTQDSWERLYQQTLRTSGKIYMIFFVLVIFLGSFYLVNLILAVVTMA
Sequence of human Nav 1.8 (Q9Y5Y9 660-890 limits assumed): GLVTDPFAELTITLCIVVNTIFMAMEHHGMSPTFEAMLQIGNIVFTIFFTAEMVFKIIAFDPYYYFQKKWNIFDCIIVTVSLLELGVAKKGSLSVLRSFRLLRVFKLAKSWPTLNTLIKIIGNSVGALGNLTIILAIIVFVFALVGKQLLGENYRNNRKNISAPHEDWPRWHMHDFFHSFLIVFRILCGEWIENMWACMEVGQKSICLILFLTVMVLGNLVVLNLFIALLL
Sequence of human Nav 1.8 (Q9Y5Y9 1148-1722 limits assumed): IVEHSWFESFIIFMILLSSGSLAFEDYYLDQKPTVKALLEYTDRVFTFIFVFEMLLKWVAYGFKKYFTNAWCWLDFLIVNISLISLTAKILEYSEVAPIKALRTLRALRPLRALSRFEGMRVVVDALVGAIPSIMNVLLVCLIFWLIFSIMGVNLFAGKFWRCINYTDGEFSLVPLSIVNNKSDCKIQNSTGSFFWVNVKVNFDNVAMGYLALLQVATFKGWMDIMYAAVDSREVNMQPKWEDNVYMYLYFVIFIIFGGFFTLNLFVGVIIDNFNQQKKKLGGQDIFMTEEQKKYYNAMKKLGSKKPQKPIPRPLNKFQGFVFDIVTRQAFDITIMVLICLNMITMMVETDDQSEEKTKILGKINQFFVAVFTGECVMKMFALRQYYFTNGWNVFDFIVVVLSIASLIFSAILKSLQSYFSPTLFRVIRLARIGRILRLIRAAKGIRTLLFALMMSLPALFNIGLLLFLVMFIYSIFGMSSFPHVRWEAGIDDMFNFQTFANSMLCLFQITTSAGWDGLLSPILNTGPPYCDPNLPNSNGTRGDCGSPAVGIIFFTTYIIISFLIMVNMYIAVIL
As for `Cc1c(F)ccc([C@@H]2C[C@](C)(C(F)(F)F)O[C@H]2C(=O)Nc2ccnc(C(N)=O)c2)c1OCCO` (single isomer, unassigned) [Compound 37], the IC50 is 100 to 1000 nM.

Still in this experiment, the particulars now being: HEK cells expressing a truncated form of human Nav 1.8; compound numbers without "*" (not marked as run in the presence of human serum); read-out: measured IC50 value in the E-VIPR Assay.
For `COc1c([C@H]2[C@H](C(=O)Nc3ccnc(C(=O)N4CC5CC(C4)N5C)c3)O[C@@](C)(C(F)(F)F)[C@H]2C)ccc(F)c1F` [Compound 278, (2R,3S,4S,5R)-3-(3,4-difluoro-2-methoxyphenyl)-4,5-dimethyl-N-(2-(6-methyl-3,6-diazabicyclo[3.1.1]heptane-3-carbonyl)pyridin-4-yl)-5-(trifluoromethyl)tetrahydrofuran-2-carboxamide], the IC50 is less than 10 nM.
For the compound `CO[C@@H]1CCN(CCOc2c([C@H]3[C@H](C(=O)Nc4ccnc(C(N)=O)c4)O[C@@](C)(C(F)(F)F)[C@H]3C)ccc(F)c2F)C1` [Compound 128, 4-((2R,3S,4S,5R)-3-(3,4-difluoro-2-(2-((R)-3-methoxypyrrolidin-1-yl)ethoxy)phenyl)-4,5-dimethyl-5-(trifluoromethyl)tetrahydrofuran-2-carboxamido)picolinamide], the IC50 fell in the range of 10 to 100 nM.
`COc1c([C@H]2[C@H](C(=O)Nc3ccnc(C(=O)N4C[C@@H](F)[C@@H](N(C)C)C4)c3)O[C@@](C)(C(F)(F)F)[C@H]2C)ccc(F)c1F` [Compound 296, (2R,3S,4S,5R)-3-(3,4-difluoro-2-methoxyphenyl)-N-(2-((3S,4R)-3-(dimethylamino)-4-fluoropyrrolidine-1-carbonyl)pyridin-4-yl)-4,5-dimethyl-5-(trifluoromethyl)tetrahydrofuran-2-carboxamide]: the IC50 is less than 10 nM.
For the compound `COCCOc1c([C@@H]2[C@@H](C(=O)Nc3ccnc(C(N)=O)c3)O[C@](C)(C(F)(F)F)[C@@H]2C)ccc(F)c1F` (stereo in doubt) [Compound 1, rel-4-((2S,3R,4R,5S)-3-(3,4-difluoro-2-(2-methoxyethoxy)phenyl)-4,5-dimethyl-5-(trifluoromethyl)tetrahydrofuran-2-carboxamido) picolinamide], the IC50 fell in the range of 100 to 1000 nM.
Same read-out and setting: as for `COc1c([C@H]2[C@H](C(=O)Nc3cc(C(=O)N4CCNCC4)ncn3)O[C@@](C)(C(F)(F)F)[C@H]2C)ccc(F)c1F` [Compound 21, (2R,3S,4S,5R)-3-(3,4-difluoro-2-methoxyphenyl)-4,5-dimethyl-N-(6-(piperazine-1-carbonyl)pyrimidin-4-yl)-5-(trifluoromethyl)tetrahydrofuran-2-carboxamide], the figure is 10 to 100 nM.
Regarding `C[C@H]1[C@@H](c2ccc(F)c(F)c2OCCC2(O)CC2)[C@H](C(=O)Nc2ccnc(C(N)=O)c2)O[C@@]1(C)C(F)(F)F` [Compound 156, 4-((2R,3S,4S,5R)-3-(3,4-difluoro-2-(2-(1-hydroxycyclopropyl)ethoxy)phenyl)-4,5-dimethyl-5-(trifluoromethyl)tetrahydrofuran-2-carboxamido)picolinamide], the IC50 is less than 10 nM.
On the same count and under the same terms, as for `COc1c([C@H]2[C@H](C(=O)Nc3ccnc(C(=O)N4C[C@H](OC)[C@@H](N)C4)c3)O[C@@](C)(C(F)(F)F)[C@H]2C)ccc(F)c1F` [Compound 262, (2R,3S,4S,5R)-N-(2-((3S,4S)-3-amino-4-methoxypyrrolidine-1-carbonyl)pyridin-4-yl)-3-(3,4-difluoro-2-methoxyphenyl)-4,5-dimethyl-5-(trifluoromethyl)tetrahydrofuran-2-carboxamide], the figure is less than 10 nM; as for `C[C@H]1[C@@H](c2ccc(F)c(F)c2OCCN2C[C@@H]3C[C@H]2CO3)[C@H](C(=O)Nc2ccnc(C(N)=O)c2)O[C@@]1(C)C(F)(F)F` (relative stereo) [Compound 46, rel-4-((2R*,3S*,4S*,5R*)-3-(2-(2-((1S,4S)-2-oxa-5-azabicyclo[2.2.1]heptan-5-yl)ethoxy)-3,4-difluorophenyl)-4,5-dimethyl-5-(trifluoromethyl)tetrahydrofuran-2-carboxamido)picolinamide], less than 10 nM; as for `COc1c([C@H]2[C@H](C(=O)Nc3ccnc(C(=O)N4CC5(CCN5)C4)c3)O[C@@](C)(C(F)(F)F)[C@H]2C)ccc(F)c1F` [Compound 215, (2R,3S,4S,5R)—N-(2-(1,6-diazaspiro[3.3]heptane-6-carbonyl)pyridin-4-yl)-3-(3,4-difluoro-2-methoxyphenyl)-4,5-dimethyl-5-(trifluoromethyl)tetrahydrofuran-2-carboxamide], less than 10 nM.
The same measure, in the same setting: then `CNC(=O)c1cc(NC(=O)[C@@H]2O[C@@](C)(C(F)(F)F)[C@@H](C)[C@H]2c2ccc(F)c(F)c2OCCN2CC3(COC3)C2)ccn1` [Compound 136, 4-((2R,3S,4S,5R)-3-(2-(2-(2-oxa-6-azaspiro[3.3]heptan-6-yl)ethoxy)-3,4-difluorophenyl)-4,5-dimethyl-5-(trifluoromethyl)tetrahydrofuran-2-carboxamido)-N-methylpicolinamide], with 10 to 100 nM.
Same read-out and setting: as for `CC(=O)COc1c([C@H]2[C@H](C(=O)Nc3ccnc(C(N)=O)c3)O[C@@](C)(C(F)(F)F)[C@H]2C)ccc(F)c1F` [Compound 79, 4-((2R,3S,4S,5R)-3-(3,4-difluoro-2-(2-oxopropoxy)phenyl)-4,5-dimethyl-5-(trifluoromethyl)tetrahydrofuran-2-carboxamido)picolinamide], the figure is 10 to 100 nM.
For the compound `COc1c([C@H]2[C@H](C(=O)Nc3ccnc(C(=O)N(C)[C@@H]4CCNC4)c3)O[C@@](C)(C(F)(F)F)[C@H]2C)ccc(F)c1F` [Compound 229, 4-((2R,3S,4S,5R)-3-(3,4-difluoro-2-methoxyphenyl)-4,5-dimethyl-5-(trifluoromethyl)tetrahydrofuran-2-carboxamido)-N-methyl-N-((R)-pyrrolidin-3-yl)picolinamide], the IC50 is less than 10 nM.
Still for that read-out and setting: as for `COc1c([C@H]2[C@H](C(=O)Nc3ccnc(C(=O)N4CC5CC(C4)O5)c3)O[C@@](C)(C(F)(F)F)[C@H]2C)ccc(F)c1F` [Compound 218, (2R,3S,4S,5R)-N-(2-(6-oxa-3-azabicyclo[3.1.1]heptane-3-carbonyl)pyridin-4-yl)-3-(3,4-difluoro-2-methoxyphenyl)-4,5-dimethyl-5-(trifluoromethyl)tetrahydrofuran-2-carboxamide], the figure is less than 10 nM; as for `C[C@H]1[C@@H](c2ccc(F)c3c2CCC3(F)F)[C@H](C(=O)Nc2ccnc(C(N)=O)c2)O[C@@]1(C)C(F)(F)F` (single isomer, unassigned) [Compound 149], less than 10 nM.
On the same count and under the same terms, as for `CN[C@H]1CN(C(=O)c2cc(NC(=O)[C@@H]3O[C@@](C)(C(F)(F)F)[C@@H](C)[C@H]3c3ccc(F)c(F)c3OC)ccn2)C[C@H]1OC` [Compound 297, (2R,3S,4S,5R)-3-(3,4-difluoro-2-methoxyphenyl)-N-(2-((3R,4S)-3-methoxy-4-(methylamino)pyrrolidine-1-carbonyl)pyridin-4-yl)-4,5-dimethyl-5-(trifluoromethyl)tetrahydrofuran-2-carboxamide], the figure is less than 10 nM.
Same read-out and setting: as for `C[C@H]1[C@@H](c2ccc(F)c(F)c2OCCc2cn(C)cn2)[C@H](C(=O)Nc2ccnc(C(N)=O)c2)O[C@@]1(C)C(F)(F)F` [Compound 85, 4-((2R,3S,4S,5R)-3-(3,4-difluoro-2-(2-(1-methyl-1H-imidazol-4-yl)ethoxy)phenyl)-4,5-dimethyl-5-(trifluoromethyl)tetrahydrofuran-2-carboxamido) picolinamide], the figure is less than 10 nM.
For the compound `C/C(COc1c([C@H]2[C@H](C(=O)Nc3ccnc(C(N)=O)c3)O[C@@](C)(C(F)(F)F)[C@H]2C)ccc(F)c1F)=N\O` [Compound 185, 4-((2R,3S,4S,5R)-3-(3,4-difluoro-2-((E)-2-(hydroxyimino)propoxy)phenyl)-4,5-dimethyl-5-(trifluoromethyl)tetrahydrofuran-2-carboxamido)picolinamide], the IC50 was less than 10 nM.
Turning to `C[C@H]1[C@@H](c2ccc(F)c(F)c2OCCN2C3CCC2COC3)[C@H](C(=O)Nc2ccnc(C(N)=O)c2)O[C@@]1(C)C(F)(F)F` [Compound 113, 4-((2R,3S,4S,5R)-3-(2-(2-(3-oxa-8-azabicyclo[3.2.1]octan-8-yl)ethoxy)-3,4-difluorophenyl)-4,5-dimethyl-5-(trifluoromethyl)tetrahydrofuran-2-carboxamido)picolinamide], the IC50 lay in the range of 10 to 100 nM.
Same read-out and setting: as for `C[C@H]1[C@@H](c2ccc(F)c(F)c2OC[C@H]2CCO2)[C@H](C(=O)Nc2ccnc(C(N)=O)c2)O[C@@]1(C)C(F)(F)F` (single isomer, unassigned) [Compound 59, rel-4-((2R*,3S*,4S*,5R*)-3-(3,4-difluoro-2-((oxetan-2-yl)methoxy)phenyl)-4,5-dimethyl-5-(trifluoromethyl)tetrahydrofuran-2-carboxamido)picolinamide], the figure is less than 10 nM.
Same read-out and setting: as for `COc1c([C@H]2[C@H](C(=O)Nc3ccnc(C(=O)NC[C@H]4CCCCN4)c3)O[C@@](C)(C(F)(F)F)[C@H]2C)ccc(F)c1F` [Compound 251, 4-((2R,3S,4S,5R)-3-(3,4-difluoro-2-methoxyphenyl)-4,5-dimethyl-5-(trifluoromethyl)tetrahydrofuran-2-carboxamido)-N-(((R)-piperidin-2-yl)methyl)picolinamide], the figure is 10 to 100 nM.
Still for that read-out and setting: then `COc1c([C@H]2[C@H](C(=O)Nc3ccnc(C(=O)N[C@H]4CCN(C)C4)c3)O[C@@](C)(C(F)(F)F)[C@H]2C)ccc(F)c1F` [Compound 277, 4-((2R,3S,4S,5R)-3-(3,4-difluoro-2-methoxyphenyl)-4,5-dimethyl-5-(trifluoromethyl)tetrahydrofuran-2-carboxamido)-N-((S)-1-methylpyrrolidin-3-yl)picolinamide], with 10 to 100 nM; and `CNC(=O)c1cc(NC(=O)[C@@H]2O[C@@](C)(C(F)(F)F)[C@@H](C)[C@H]2c2ccc(F)c(F)c2OCC2COC2)ccn1` [Compound 66], with less than 10 nM.
As to `COCC1(C)CC(c2ccc(F)c(F)c2OC)C(C(=O)Nc2ccnc(C(N)=O)c2)O1` (single isomer, unassigned) [Compound 29], the IC50 is not below 1000 nM.
